Test results reported in patent US20090298752A1, “APLIDINE TREATMENT OF CANCERS” (PHARMA MAR, S.A., priority 1999, published 2009).
“And” between values parts separate entries of the source, which are not always exact repeats. Equal values may be shown once. “Also recorded” adds a separate entry of the source.

Key:
lewis lung carcinomas = conditions: cited from earlier work
VEGF mRNA [1] = test: VEGF mRNA in MOLT-4 cells (Rnase protection); assay type: cell-based, human
VEGF promoter = VEGF promoter luciferase reporter in MOLT-4 cells; assay type: cell-based, human; conditions: luciferase after 24 hours vs renilla
Experimental: Cells were transfected with the VEGF promoter (spanning the first 1000 bases upstream the starting site linked to luciferase reporter gene and with a control plasmid containing the renilla reporter gene. Cells were then treated with different concentrations of aplidine and luciferase activity was measured after 24 hours and compared to renilla activity.

cell cycle = conditions: flow cytometric analysis; cited from earlier work
[2] = Phase I, 24 h infusion weekly x3 q4wk: toxicity and pharmacokinetics; assay type: in vivo, human
Experimental: A phase I trial was performed using 24 hour infusion weekly×3 followed by 1 wk rest. 32 patients (median age 58 yrs, median ECOG 1) with advanced, previously treated solid tumours have been treated. They have received 64 courses (median/pt: 2 (1-6)) across 8 dose levels: 133 (3 pts), 266 (3 pts), 532 (3 pts), 1000 (3 pts), 2000 (3 pts), 3000 (3 pts), 4500 (4 pts) and 3750 mcg/m^2/wk (10 pts). 2 out of 3 evaluable patients had DLT at 4500 mcg/m^2/wk: grade (G) 4 reversible neuromuscular toxicity (biopsy prevent type II muscular atrophy) and G4 CK increase (1 pt), and transient G3 transaminitis (1 pt). Other toxicities included G 1-2 malaise (most patients treated at ≧3000 mcg/m^2/wk), muscle cramps, G 1-2 emesis (responsive to antiemetics) and injection site reaction (very common and concentration-dependent). All patients have been sampled for PK analysis by a LC/MS/MS method. Pharmacokinetics are linear and the profiles fit a 2 compartment open model. […] Maintained plasma levels >1 ng/ml (active in vitro) were obtained at doses ≧3000 mcg/m^2. […] Four additional patients had minor responses or stable disease for >4 months. […] The recommended dose for future trials, 3750 mcg/m^2/wk×3, administered through a central vein catheter, is feasible and associated with mild toxicity.
Plasma aplidine concentrations were determined by liquid chromatography/tandem mass spectography with a limit of quantitation of 0.25 ng/mL and a broad linear range up to 16.00 ng/mL
A total of 15 samples were drawn up to 24 hours after the end of infusion

[3] = tested on: advanced solid tumours and lymphoma; test: Phase I, 1 h weekly infusion x3 q4wk: antitumour activity; assay type: in vivo, human
Source text: Adult patients with advanced disease, PS<3, and appropriate organ function are considered eligible; patients receive aplidine wk×3/q^4 wks. 24 solid tumour patients have been entered: median (m) age 55 y, m ECOG=1, 15/24 patients treated with =>2 treatment cycles. Seven dose levels (DL) from 133 mcg/m^2/wk to 2700 mcg/m^2/wk have been assessed: 102 infusions are evaluable for toxicity (tox). […] At 2700 mcg/m^2/wk (4 pts), 1 had G3 hiperbilirrubinemia that has been considered to be dose limiting and therefore 2700 mcg/m^2/wk DL is being expanded. […] Plasma levels >1 ng/ml 24 hours after infusion are reachable form 1800 mcg/m^2/wk. […] Aplidine appears to be clinically feasible at pharmacologically appropriate dose levels.
Aplidine was administered as a 1 hour weekly×3 every four weeks

[4] = Clinical pharmacokinetics across phase I schedules; assay type: in vivo, human; conditions: plasma PK, initial results
Experimental: […] intravenous schedules are under phase I evaluation: weekly 24 h infusion, biweekly 24 h infusion and 5 consecutive days 1 h infusion every 3 weeks. APL blood concentrations are analysed by liquid chromatography-tandem mass spectrometry. […] An open 2-compartment model fits appropriately most profiles after 24 h infusion. For 1 h infusions a 3-compartment model provides a better fit in most cases. Obtained plasma levels are known to be active in vitro. Evaluation of additional patients, and a comparison of blood cells and plasma PK is ongoing.

P388 leukaemia = conditions: mice; cited from earlier work
VEGF mRNA [5] = test: VEGF mRNA levels in IGROV-1; assay type: cell-based, human
MOLT-4 = test: apoptosis in leukaemia cell line; assay type: cell-based, human
Prostate PC-3 = test: sc hollow fibre (HF), prostate tumour cells, rat; assay type: in vivo; conditions: 0.70 mg/kg, 0.7 mg/kg
Experimental: Different model systems were evaluated to provide the basis for further clinical work. Selective antitumour activities were seen against two histologically different solid tumours: human gastric and prostate carcinomas. Potent in vitro activity to primary gastric tumour specimens or Hs746T gastric tumour cells is evident with IC30 values of 146 and 450 pM, respectively. […] activities were evaluated in nude rodents using sc implanted tumour fragments or hollow fibres (HF) containing tumour cells.
Follow-up studies necessitated using rats for iv infusions. With this variation, a 24 hr iv infusion schedule produced similar activities against HF gastric (20%) and HF prostate (31%) tumour cells. Cytotoxicity was also found using a 5 day iv infusion schedule against HF prostate tumour cells (33%).

prostate tumour = conditions: 1.25 mg/kg; cited from earlier work
[6] = DL V, 2000 mcg/m^2/wk, 3 patients
[7] = DL VI, 3000 mcg/m^2/wk, 3 patients
[8] = DL VII (MTD), 4500 mcg/m^2/wk, 4 patients
[9] = DL VIII (RD), 3750 mcg/m^2/wk, 13 patients

Substance: aplidine
- activity in SC implanted tumour (lewis lung carcinomas): active
- half life of VEGF mRNA, in words (VEGF mRNA [1]): does not change the half life of VEGF mRNA
- levels of VEGF mRNA, in words (VEGF mRNA [1]; 20 nM aplidine): strong decrease; also recorded: decrease in the mRNA encoding for VEGF
- activity of transfected VEGF promoter, in words (VEGF promoter): dose not decrease the activity of VEGF promoter; also recorded: did not decrease the transcription of VEGF
- cell cycle pertubations (cell cycle): did not induce any apparent cell cycle pertubations
- evaluable patients with DLT ([2]; 4500 mcg/m^2/wk): 2 out of 3
- Recommended Dose ([2]; 24 h infusion weekly x3 q4wk): 3750 μg/m^2/wk×3
- Inj. Site reaction G2 (worst toxicity per patient) ([2]; DL II, 266 mcg/m^2/wk, 3 patients): 1
- Asthenia G2 (worst toxicity per patient) ([2]; DL III, 532 mcg/m^2/wk, 3 patients): 1
- Inj. Site reaction G2 (worst toxicity per patient) ([2]; DL IV, 1000 mcg/m^2/wk, 3 patients): 1
- Inj. Site reaction G2 (worst toxicity per patient) [2, 6]: 1
- Nausea G2 (worst toxicity per patient) [2, 6]: 1
- Asthenia G2 (worst toxicity per patient) [2, 7]: 1
- Asthenia G3 (worst toxicity per patient) [2, 7]: 1
- Inj. Site reaction G2 (worst toxicity per patient) [2, 7]: 1
- Nausea G3 (worst toxicity per patient) [2, 7]: 1
- Asthenia G2 (worst toxicity per patient) [2, 8]: 1
- CPK elevation G4 (worst toxicity per patient) [2, 8]: 1
- Inj. Site reaction G2 (worst toxicity per patient) [2, 8]: 1
- Myositis G3 (worst toxicity per patient) [2, 8]: 1
- Transaminitis G3 (worst toxicity per patient) [2, 8]: 1
- Asthenia G2 (worst toxicity per patient) [2, 9]: 3
- Hypersensitivity G3 (worst toxicity per patient) [2, 9]: 1
- Inj. Site reaction G2 (worst toxicity per patient) [2, 9]: 3
- Nausea G2 (worst toxicity per patient) [2, 9]: 2
- Transaminitis G3 (worst toxicity per patient) [2, 9]: 2
- Transaminitis G4 (worst toxicity per patient) [2, 9]: 1
- plasma levels ([2]; DLs 1000 and 2000 mcg/m^2/w): ~1 ng/mL
- dose limiting toxicities (DLTs) ([2]; Example 3: 16 patients, 133-3000 mcg/m^2/wk x3): No dose limiting toxicities
- Maximum Tolerated Dose ([2]; Example 4): 4500 μg/m^2/wk×3
- elimination t ½ ([2]; Example 4, preliminary data): 10 to 24 h
- plasma levels ([2]; Example 4, preliminary data): > 1 ng/mL
- MTD ([2]; Example 11): 4500 mcg/m^2/wk
- recommended dose for future trials ([2]; Example 11, central vein catheter): 3750 mcg/m^2/wk×3
- MTD ([2]; Example 12): 4500 mcg/m^2/week×3
- haematological toxicity ([2]; Example 12): No haematological toxicity
- recommended dose for future trials ([2]; Example 12): 3750 mcg/m^2/week×3
- maintained plasma levels ([2]; doses ≧3000 mcg/m^2): > 1 ng/mL
- Blood cell accumulation as compared to plasma ([2]; in vivo): 2-8 fold
- dose from which potentially active plasma levels are reached ([2]; in vivo): ≥ 2000 mcg/m^2
- coefficient of variation of clearance (Cl) ([2]; interpatient variability): 45%
- Vss ([2]; median (quartiles)): 611 L and 611 (434-733) L
- clearance (Cl) ([2]; median (quartiles)): 0.47 L/min and 0.47 (0.40-0.56) L/min
- elimination t ½ ([2]; median (quartiles)): 18.8 h and 18.8 (15.3-25.4) h
- response, Pat #16, gastric adenocarcinoma resistant to FAM ([3]; 1200 μg/m^2 weekly): Slight improvement in the lymph node masses
- activity in gastric cancer ([3]; 1 patient at 1200 mcg/m^2): Early hints of activity
- response, advanced renal cancer resistant to VBL-IFN ([3]; 2700 mcg/m^2/wk DL): ongoing objective response
- response, Pat #23, kidney carcinoma with pulmonary nodules ([3]; after 2 infusions at 2700 μg/m^2 weekly): Partial remission in lung nodules
- response, Pat #29, kidney carcinoma ([3]; after 3 infusion): Clinical improvement
- elimination half lives [4]: 10 to 24 h
- volume of distribution [4]: > 200 L/m^2
- activity against implanted tumour (P388 leukaemia): active
- mRNA levels of VEGF, in words (VEGF mRNA [5]): reduces the mRNA levels of VEGF
- apoptosis (MOLT-4): strong apoptosis
- Activity (% T/C.) (Prostate PC-3; 24 hr.iv inf.): 31 % T/C
- Activity (% T/C.) (Prostate PC-3; 5 day, iv inf): 33 % T/C
- T/C (prostate tumour): 25%
